Data from ChEMBL document CHEMBL1201862, “PubChem BioAssay data set” (2004).
Calls of active or inactive are those of the source.

What was measured:
[1] = target: Melanin-concentrating hormone receptor 1 (Homo sapiens, UniProt Q99705); experiment: Late-stage fluorescence-based counterscreen for antagonists of the G-protein coupled receptor 7 (GPR7): cell-based dose response assay to identify antagonists of the melanin-concentrating hormone receptor 1 (MCHR1) Set 6.; format: functional
[2] = target: Neuropeptides B/W receptor type 1 (Homo sapiens, UniProt P48145); experiment: GPR7 antagonist potency, late-stage follow-up, cell-based, fluorescence, dose response, set 6 (AID 588583); format: functional
[3] = target: T1, High affinity choline transporter 1 (Homo sapiens, UniProt Q9GZV3); experiment: CHT inhibitors, dose response, cell-based, 5-point CRC, membrane potential dye (AID 504840); format: functional
T1 sequence (Q9GZV3 whole entry): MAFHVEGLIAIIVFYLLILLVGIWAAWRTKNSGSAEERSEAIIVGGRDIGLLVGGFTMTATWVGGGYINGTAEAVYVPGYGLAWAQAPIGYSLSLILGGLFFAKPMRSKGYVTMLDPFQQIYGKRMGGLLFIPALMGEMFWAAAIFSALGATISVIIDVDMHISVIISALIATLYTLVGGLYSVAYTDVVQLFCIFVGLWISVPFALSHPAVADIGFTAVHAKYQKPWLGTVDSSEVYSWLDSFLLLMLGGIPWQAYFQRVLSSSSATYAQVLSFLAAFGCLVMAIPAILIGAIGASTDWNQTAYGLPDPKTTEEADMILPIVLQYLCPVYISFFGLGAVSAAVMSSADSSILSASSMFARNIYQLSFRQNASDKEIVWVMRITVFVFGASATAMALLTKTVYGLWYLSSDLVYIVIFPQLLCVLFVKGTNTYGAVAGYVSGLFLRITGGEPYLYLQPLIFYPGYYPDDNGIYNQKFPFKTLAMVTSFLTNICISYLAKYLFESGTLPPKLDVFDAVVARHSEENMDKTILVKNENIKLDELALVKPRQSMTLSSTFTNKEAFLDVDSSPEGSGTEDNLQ

[4] = target: T1, High affinity choline transporter 1; experiment: CHT inhibitors, dose response, cell-based, 10-point CRC, membrane potential dye (AID 588401); format: functional;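 also: membrane potential dye fluorescence of choline-evoked depolarization via CHT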
[5] = AlphaScreen signal interference compounds, dose response, artefact control for ARNT-TACC3 interaction inhibitor project, biochemical, luminescence, cherry-pick (AID 651705); format: functional;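 also: AlphaScreen bead proximity signal that flags compounds interfering with the detection technology; potency reflects signal decrease which marks the compound as an assay artifact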
CHO-K1 = experiment: (§1) Counterscreen for antagonists of the orexin 1 receptor (OX1R; HCRTR1): Homogeneous time resolved fluorescence (HTRF)-based cell-based dose response assay to identify antagonists of the parental CHO-K1 cell line. [Related pubchem assays (depositor defined):AID434989, AID435008, AID463079, AID485270, AID492963, AID492964, AID492965, AID493232, AID504699, AID504701]; format: functional; settings: Cricetulus griseus
[6] = as §1, with “Fluorescence-based” for “Homogeneous time resolved fluorescence (HTRF)-based”, “cell-based high throughput” for “cell-based”, “CHO” for “CHO-K1”; format: functional
[7] = target: T2, Orexin/Hypocretin receptor type 1 (Homo sapiens, UniProt O43613); experiment: Homogeneous Time Resolved Fluorescence (HTRF)-based cell-based high throughput dose response assay for antagonists of the orexin 1 receptor (OX1R; HCRTR1). [Related pubchem assays (depositor defined):AID434989, AID435008, AID463079, AID485270, AID492963, AID492964, AID492965, AID493232, AID504717, AID504718]; format: functional
T2 sequence (O43613 whole entry): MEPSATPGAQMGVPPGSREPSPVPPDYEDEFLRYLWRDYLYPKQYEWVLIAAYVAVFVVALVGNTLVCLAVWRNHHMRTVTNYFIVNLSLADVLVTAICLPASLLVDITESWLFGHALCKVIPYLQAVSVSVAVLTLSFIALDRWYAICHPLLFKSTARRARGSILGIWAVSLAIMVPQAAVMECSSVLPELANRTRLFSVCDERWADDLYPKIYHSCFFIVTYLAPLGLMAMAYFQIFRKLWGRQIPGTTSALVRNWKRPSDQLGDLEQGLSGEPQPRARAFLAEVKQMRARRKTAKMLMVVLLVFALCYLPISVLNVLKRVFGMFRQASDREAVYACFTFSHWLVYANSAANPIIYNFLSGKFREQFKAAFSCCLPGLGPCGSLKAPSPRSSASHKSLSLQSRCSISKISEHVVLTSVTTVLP

[8] = target: T2, Orexin/Hypocretin receptor type 1; experiment: Fluorescence-based cell-based high throughput dose response assay for antagonists of the orexin 1 receptor (OX1R; HCRTR1). [Related pubchem assays (depositor defined):AID434989, AID435008, AID463079, AID485270, AID492963, AID492964, AID492965, AID493232, AID504717, AID504718]; format: functional
Orexin receptor type 2 [9] = target: T3, Orexin receptor type 2 (Homo sapiens, UniProt O43614); experiment: Counterscreen assay for antagonists of the orexin 1 receptor (OX1R; HCRTR1): Fluorescence-based cell-based dose response assay for antagonists of the orexin 2 receptor (OX2R; HCRTR2), run by assay provider.; format: functional
T3 sequence (O43614 whole entry): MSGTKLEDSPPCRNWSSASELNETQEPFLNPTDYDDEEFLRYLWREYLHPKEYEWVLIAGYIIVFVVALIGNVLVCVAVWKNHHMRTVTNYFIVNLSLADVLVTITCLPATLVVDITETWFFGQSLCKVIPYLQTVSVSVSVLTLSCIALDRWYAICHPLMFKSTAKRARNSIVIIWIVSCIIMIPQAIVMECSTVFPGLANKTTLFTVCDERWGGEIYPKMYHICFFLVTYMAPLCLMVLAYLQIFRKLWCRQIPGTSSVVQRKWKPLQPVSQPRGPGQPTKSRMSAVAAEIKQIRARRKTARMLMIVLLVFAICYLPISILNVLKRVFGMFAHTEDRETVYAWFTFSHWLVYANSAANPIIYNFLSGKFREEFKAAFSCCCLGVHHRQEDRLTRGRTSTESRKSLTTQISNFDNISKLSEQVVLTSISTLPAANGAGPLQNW

Orexin receptor type 2 [10] = target: T3, Orexin receptor type 2; experiment: Counterscreen assay for antagonists of the orexin 1 receptor (OX1R; HCRTR1): Homogeneous Time Resolved Fluorescence (HTRF)-based cell-based dose response assay for antagonists of the orexin 2 receptor (OX2R; HCRTR2), run by assay provider.; format: functional
[11] = THP-1 cell cytotoxicity, dose response, cytotoxicity control for Vif-APOBEC3G degradation inhibitor project, THP-1 cells (AID 1117359); format: functional; settings: Human immunodeficiency virus 1, THP-1
[12] = target: ATP-dependent translocase ABCB1 (Homo sapiens, UniProt P08183); experiment: ABCB1 efflux pump inhibitor potency, dose response, Jurkat-DNR cells, JC-1, flow cytometry (AID 1689); format: functional
HEK293 [13] = experiment: NOD1 signaling inhibitors, primary screen, cell-based, luminescence, uHTS (AID 1578); format: functional; settings: Homo sapiens
HEK293 [14] = experiment: cells; format: functional, cell-based; settings: Homo sapiens
HEK293 [15] = experiment: cells; format: functional, cell-based; settings: Homo sapiens; remark: listed apart in the source
[16] = target: Nucleotide-binding oligomerization domain-containing protein 2 (Homo sapiens, UniProt Q9HC29); experiment: NOD2 signaling inhibitors, cell-based, luminescence, uHTS, HEK293 (AID 1566); format: functional
HEK293 [17] = experiment: NOD2 signaling inhibitors in MDP-stimulated cells, cell-based, uHTS, luminescence (AID 2001); format: functional; settings: Homo sapiens
HEK293 [18] = experiment: cells; format: functional, cell-based; settings: Homo sapiens; remark: listed apart in the source
Interleukin-8 [19] = target: T4, Interleukin-8 (Homo sapiens, UniProt P10145); experiment: Dose Response confirmation of uHTS small molecule hits for cystic fibrosis induced NFkb Inhibitors in a TNFa-induced IL8 counterscreen.; format: functional; settings: read-out: IC50_Mean
T4 sequence (P10145 whole entry): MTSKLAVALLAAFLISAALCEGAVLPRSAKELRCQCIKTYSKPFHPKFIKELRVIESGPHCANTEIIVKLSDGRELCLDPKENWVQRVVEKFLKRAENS

Interleukin-8 [20] = target: T4, Interleukin-8; experiment: Dose Response confirmation of uHTS small molecule hits for cystic fibrosis induced NFkb Inhibitors in a PAF-induced IL8 counterscreen.; format: functional; settings: read-out: IC50_Mean

Sequence of Nucleotide-binding oligomerization domain-containing protein 2 (Q9HC29 whole entry, the tested form may be a part): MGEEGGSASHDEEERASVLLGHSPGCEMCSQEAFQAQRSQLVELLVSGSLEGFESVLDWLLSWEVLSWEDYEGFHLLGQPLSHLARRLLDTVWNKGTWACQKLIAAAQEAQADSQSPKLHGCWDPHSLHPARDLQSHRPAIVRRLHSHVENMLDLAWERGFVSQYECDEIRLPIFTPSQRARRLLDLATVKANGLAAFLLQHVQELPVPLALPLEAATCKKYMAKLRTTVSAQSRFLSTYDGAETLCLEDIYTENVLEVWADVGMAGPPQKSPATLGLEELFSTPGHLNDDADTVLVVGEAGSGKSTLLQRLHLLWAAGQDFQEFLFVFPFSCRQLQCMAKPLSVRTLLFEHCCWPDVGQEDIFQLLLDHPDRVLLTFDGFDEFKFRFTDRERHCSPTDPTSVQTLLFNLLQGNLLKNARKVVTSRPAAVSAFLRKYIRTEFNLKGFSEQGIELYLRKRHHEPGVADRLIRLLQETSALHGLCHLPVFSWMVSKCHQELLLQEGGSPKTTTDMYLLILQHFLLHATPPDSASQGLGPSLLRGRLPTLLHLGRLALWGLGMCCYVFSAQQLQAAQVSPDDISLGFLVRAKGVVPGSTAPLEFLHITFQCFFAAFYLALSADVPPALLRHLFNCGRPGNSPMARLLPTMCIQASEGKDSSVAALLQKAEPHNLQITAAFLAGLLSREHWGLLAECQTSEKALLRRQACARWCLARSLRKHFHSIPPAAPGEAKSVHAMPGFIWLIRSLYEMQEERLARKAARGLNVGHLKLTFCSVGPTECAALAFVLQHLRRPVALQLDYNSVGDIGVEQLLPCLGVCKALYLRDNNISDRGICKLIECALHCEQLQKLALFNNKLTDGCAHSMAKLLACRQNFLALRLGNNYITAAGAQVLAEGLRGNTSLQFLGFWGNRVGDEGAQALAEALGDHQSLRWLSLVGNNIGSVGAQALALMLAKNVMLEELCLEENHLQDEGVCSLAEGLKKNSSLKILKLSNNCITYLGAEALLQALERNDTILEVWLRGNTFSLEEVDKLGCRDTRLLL
Sequence of Neuropeptides B/W receptor type 1 (P48145 whole entry): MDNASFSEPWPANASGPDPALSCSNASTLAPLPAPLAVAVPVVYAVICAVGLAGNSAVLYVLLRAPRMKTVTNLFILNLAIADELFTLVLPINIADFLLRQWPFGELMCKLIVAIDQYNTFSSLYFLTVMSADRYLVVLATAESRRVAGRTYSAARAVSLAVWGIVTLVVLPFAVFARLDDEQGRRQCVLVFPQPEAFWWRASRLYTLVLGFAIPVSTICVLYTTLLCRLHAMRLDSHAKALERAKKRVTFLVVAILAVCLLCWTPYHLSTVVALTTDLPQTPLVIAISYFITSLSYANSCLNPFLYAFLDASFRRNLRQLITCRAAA
Sequence of Melanin-concentrating hormone receptor 1 (Q99705 whole entry): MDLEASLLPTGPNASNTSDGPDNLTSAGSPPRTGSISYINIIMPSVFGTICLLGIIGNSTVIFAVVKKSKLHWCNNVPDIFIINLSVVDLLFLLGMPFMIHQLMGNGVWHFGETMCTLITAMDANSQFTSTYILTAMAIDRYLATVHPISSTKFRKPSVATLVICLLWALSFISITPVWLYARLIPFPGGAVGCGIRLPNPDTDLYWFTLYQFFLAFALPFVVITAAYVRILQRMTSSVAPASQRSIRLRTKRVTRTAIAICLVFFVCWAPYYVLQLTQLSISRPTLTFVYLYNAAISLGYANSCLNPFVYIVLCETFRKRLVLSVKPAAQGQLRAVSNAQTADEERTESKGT
Sequence of ATP-dependent translocase ABCB1 (P08183 whole entry): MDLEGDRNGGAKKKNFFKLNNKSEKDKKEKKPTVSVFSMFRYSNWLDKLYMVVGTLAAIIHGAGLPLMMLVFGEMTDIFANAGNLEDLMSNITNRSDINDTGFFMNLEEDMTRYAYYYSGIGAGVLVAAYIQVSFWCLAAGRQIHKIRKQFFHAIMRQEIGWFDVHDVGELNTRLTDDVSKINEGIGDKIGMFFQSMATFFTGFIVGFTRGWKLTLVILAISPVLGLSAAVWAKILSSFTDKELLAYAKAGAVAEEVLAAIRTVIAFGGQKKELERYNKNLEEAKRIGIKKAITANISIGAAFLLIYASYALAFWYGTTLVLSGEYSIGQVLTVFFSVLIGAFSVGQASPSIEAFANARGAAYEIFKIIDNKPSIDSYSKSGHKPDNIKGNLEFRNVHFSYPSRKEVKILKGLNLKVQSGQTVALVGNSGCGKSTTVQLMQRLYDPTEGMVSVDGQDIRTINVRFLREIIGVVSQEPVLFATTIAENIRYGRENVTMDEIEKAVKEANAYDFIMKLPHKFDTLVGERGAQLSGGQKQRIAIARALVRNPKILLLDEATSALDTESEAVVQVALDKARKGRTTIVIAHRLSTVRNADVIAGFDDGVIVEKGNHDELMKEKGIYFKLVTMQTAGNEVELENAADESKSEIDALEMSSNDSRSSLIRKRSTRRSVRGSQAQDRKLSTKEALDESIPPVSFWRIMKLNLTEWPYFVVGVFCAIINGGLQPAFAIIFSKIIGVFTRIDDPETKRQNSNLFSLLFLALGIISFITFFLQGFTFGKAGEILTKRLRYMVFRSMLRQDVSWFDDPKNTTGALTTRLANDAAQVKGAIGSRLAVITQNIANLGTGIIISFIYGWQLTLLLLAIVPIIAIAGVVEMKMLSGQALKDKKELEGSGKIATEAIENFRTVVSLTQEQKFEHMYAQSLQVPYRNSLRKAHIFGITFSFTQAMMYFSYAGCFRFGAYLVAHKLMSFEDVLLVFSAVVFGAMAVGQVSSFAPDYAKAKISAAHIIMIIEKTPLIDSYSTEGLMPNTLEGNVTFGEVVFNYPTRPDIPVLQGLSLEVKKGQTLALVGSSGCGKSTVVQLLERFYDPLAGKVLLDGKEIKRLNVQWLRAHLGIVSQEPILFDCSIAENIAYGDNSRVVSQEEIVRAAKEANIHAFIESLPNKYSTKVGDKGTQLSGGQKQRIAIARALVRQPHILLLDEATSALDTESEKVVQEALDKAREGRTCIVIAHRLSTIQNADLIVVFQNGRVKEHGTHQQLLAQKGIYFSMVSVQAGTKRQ

**Q.** For `CCOc1ccc(C(C#N)c2c(Br)cnn(Cc3cccc4ccccc34)c2=O)cc1` (stereo unspecified), which IC50 [1] is on record?
**A.** 0.4 µM (active)

**Q.** What about the IC50 [2] of the same compound?
**A.** 0.4 µM (active)

**Q.** For `C/C(=N\N=C(N)N)c1ccc(Cl)cc1`, which IC50 [3] is on record?
**A.** 7.39 µM (active)

**Q.** And the IC50 [4]?
**A.** 4.01 µM (active)

**Q.** With `O=C(Nc1ccc(F)cc1)c1nc[nH]c1C(=O)O` as the compound, how does the AC50 [5] read?
**A.** 105 µM (active)

**Q.** For `Cc1c2ccccc2nc2c(F)c(N(C)C)c(F)c(F)c12`, which IC50 (CHO-K1) is on record?
**A.** > 66.2 µM (inactive)

**Q.** And the IC50 [6]?
**A.** 19.7 µM (inactive)

**Q.** What about the IC50 [7] of the same compound?
**A.** 1.01 µM (active)

**Q.** What about the IC50 [8] of the same compound?
**A.** 2.19 µM (active)

**Q.** And the IC50 (Orexin receptor type 2 [9])?
**A.** 32.2 µM (inactive)

**Q.** What about the IC50 (Orexin receptor type 2 [10]) of the same compound?
**A.** > 50 µM (inactive)

**Q.** What about the CC50 [11] of the same compound?
**A.** > 40 µM (active)

**Q.** For `Cc1nc2cc(-c3cccc(F)c3)nn2c(N2CCN(C(=O)c3ccco3)CC2)c1C`, which EC50 [12] is on record?
**A.** 14.6 µM (inactive)

**Q.** With `CCSc1nsc(NC(=O)Nc2cccc(C(C)=O)c2)n1` as the compound, how does the EC50 (HEK293 [13]) read?
**A.** 4.27 µM (active)

**Q.** And the IC50 (HEK293 [14])?
**A.** 1.27 µM (active)

**Q.** What about the IC50 (HEK293 [15]) of the same compound?
**A.** > 20 µM (inactive)

**Q.** And the EC50 [16]?
**A.** 6.47 µM (active)

**Q.** And the IC50 (HEK293 [17])?
**A.** 2.39 µM (active)

**Q.** And the IC50 (HEK293 [18])?
**A.** > 20 µM (inactive)

**Q.** What about the IC50 (Interleukin-8 [19]) of the same compound?
**A.** 1.77 µM (active)

**Q.** What about the IC50 (Interleukin-8 [20]) of the same compound?
**A.** 5.42 µM (active)
